Data: patent US8975232B2, “Macrocyclic kinase inhibitors and uses thereof” (President and Fellows of Harvard College, priority 2010, dated 2015)
Values joined by “and” are separate entries in the source; they are usually repeats but may differ in a detail not shown here. Equal entries are not always repeated.

Legend:
[1] = system: 3T3 cells (src−/−) stably transfected with c-Src Y529F; assay: Global phosphotyrosine Western blot (4G10) in c-Src Y529F-transfected cells; assay type: cell-based, murine
Experimental: Cells were cultured in 48-well tissue culture plates in DMEM+10% FBS until they reached confluence. After removing serum-containing medium, cells were washed with serum-free DMEM, and small molecule inhibitor in serum-free DMEM with 2% DMSO was added to each well and incubated overnight. After incubation with compound, cells were washed once with PBS and lysed in Cell Extraction Buffer (Invitrogen), a modified RIPA buffer, supplemented with PMSF and protease inhibitors according to the manufacturer's instruction. Cell lysates were quantified by BCA assay (Pierce Biotechnology) and an equivalent amount of lysate was loaded into each lane of a 4-12% polyacrylamide gel, and separated by SDS-PAGE. Separated proteins were transferred onto a PVDF membrane, and blocked for one hour with 5% BSA in TBST buffer. The membrane was then incubated overnight at 4° C. with 4G10 anti-phosphotyrosine antibody (Millipore) and a β-tubulin antibody (Sigma) as a loading control. Fluorescent anti-mouse and anti-rabbit secondary antibodies (LI-COR) were added prior to imaging the membrane.
Having obtained macrocycle Src kinase inhibitors with nanomolar in vitro potency, the potency for inhibition of Src kinase activity in living cells was assessed. Since intracellular Src kinase signaling is complex and tightly regulated, a cell culture line transfected with a constitutively active form of murine c-Src was chosen. 3T3 cells (src−/−) stably transfected with c-Src Y529F were compared to 3T3 cells (src−/−) transfected with empty vector. Anti-phosphotryosine Western blotting with the 4G10 antibody (Millipore) indicated a marked difference between global phosphotyrosine levels in the c-Src Y529F transfected cells compared to those transfected with empty vector; in fact, almost all detectable intracellular phosphotyrosine in the Src-transfected cell line was a result of c-Src Y529F and downstream signaling (FIG. 23, upper panel, compare lanes 2 and 3, transfected and trated with DMSO, against lanes 8 and 9, transfected with empty vector).
Briefly, cells were seeded in a 48-well plate and grown to confluence in Dulbecco's Modified Eagle Medium (DMEM) supplemented with 10% fetal bovine serum (FBS). Individual wells were then treated with 10 or 100 μM concentration of macrocycle in serum-free DMEM overnight. After removing the small molecule and washing with phosphate-buffered saline, cells were lysed in radioimmunoprecipitation assay (RIPA) buffer, and global phosphotyrosine levels were quantified by Western blot.

[2] = target: T1, Lck (Mus musculus, UniProt P06240); assay: Continuous spectrophotometric kinase activity assay; assay type: biochemical, murine
T1 construct: murine Lck (residues 227-509); made in house
T1 sequence (P06240 227-509): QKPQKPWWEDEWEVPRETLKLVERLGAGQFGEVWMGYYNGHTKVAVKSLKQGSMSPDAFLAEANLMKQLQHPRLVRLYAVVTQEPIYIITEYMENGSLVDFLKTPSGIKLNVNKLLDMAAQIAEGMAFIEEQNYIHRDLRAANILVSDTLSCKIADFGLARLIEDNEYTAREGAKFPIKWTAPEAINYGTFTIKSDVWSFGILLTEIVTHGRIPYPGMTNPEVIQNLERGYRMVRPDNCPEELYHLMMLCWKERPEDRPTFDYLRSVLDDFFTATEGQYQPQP
From the text: (§1) Kinase domain constructs of human c-Abl (residues 229-512), chicken c-Src (residues 251-533 and residues 83-533), murine Lck (residues 227-509), and human Hck (residues 166-445) were expressed as previously described (Seeliger, Young et al. 2005; Seeliger, Nagar et al. 2007; the entire contents of each of which are incorporated by reference herein). Mutations were introduced into chicken c-Src (residues 251-533) (T338I, C277Q, L297M) by site-directed mutagenesis and verified by DNA sequencing.
(§2) In vitro kinase inhibition assays were performed using either a continuous spectrophotometric assay or a FRET-based endpoint assay.
(§3) The original characterization of kinase inhibition was performed with a commercial kinase assay that relies on a fluorescently labeled peptide kinase substrate (Z-LYTE, Invitrogen). For further characterization, a continuous spectrophotometric kinase activity assay was employed that is easily adapted to different substrate peptides as well as a wider range of peptide and ATP concentrations.

[3] = target: HCK (Homo sapiens, UniProt P08631); assay: as above; assay type: biochemical; set-up: Kinase domain constructs of human c-Abl (residues 229-512), chicken c-Src (residues 251-533 and residues 83-533), murine Lck (residues 227-509), and human Hck (residues 166-445); made in house
Chain of HCK (P08631 262-515 limits assumed): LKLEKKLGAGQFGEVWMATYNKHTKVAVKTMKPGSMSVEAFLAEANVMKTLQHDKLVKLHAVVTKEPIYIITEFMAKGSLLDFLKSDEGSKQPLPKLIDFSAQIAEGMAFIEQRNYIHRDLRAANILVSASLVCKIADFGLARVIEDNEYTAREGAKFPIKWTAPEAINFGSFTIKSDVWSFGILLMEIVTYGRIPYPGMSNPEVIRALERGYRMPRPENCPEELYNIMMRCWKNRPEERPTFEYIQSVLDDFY
From the text: as §1, §2, §3

[4] = target: T2, full-length chicken c-Src (Gallus gallus, UniProt P00523); assay: Z'-LYTE kinase assay (Tyr 02 substrate peptide), full-length c-Src; assay type: biochemical; settings: for IC50: full-length chicken c-Src, ATP near KM (50 μM)
T2 construct: assayed against full-length chicken c-Src
Experimental: (§4) For the FRET-based endpoint assay, kinase assays were performed using Invitrogen's Z′-LYTE kinase assay using the Tyr 02 substrate peptide (based upon the optimal Abl substrate peptide […]) according to the manufacturer's instructions. Assays were performed at near KM ATP concentrations for full-length c-Src and full-length c-Src T338I-50 μM and 7 μM, respectively.
Derivatives of MC4 were synthesized by Fmoc solid-phase peptide synthesis and assayed against full-length chicken c-Src using Invitrogen's Z′-LYTE kinase assay. […] Holding the amino acids at the A and C positions constant, variants of MC4 containing phenylalanine, cyclohexylalanine, pentafluorophenylalanine, and N-methyl-phenylalanine at the B position in place of furylalanine were synthesized and assayed.

[5] = target: T3, Abl (Homo sapiens, UniProt P00519); assay: Continuous spectrophotometric kinase activity assay; assay type: biochemical
T3 construct: human c-Abl (residues 229-512); made in house
T3 sequence (P00519 229-512): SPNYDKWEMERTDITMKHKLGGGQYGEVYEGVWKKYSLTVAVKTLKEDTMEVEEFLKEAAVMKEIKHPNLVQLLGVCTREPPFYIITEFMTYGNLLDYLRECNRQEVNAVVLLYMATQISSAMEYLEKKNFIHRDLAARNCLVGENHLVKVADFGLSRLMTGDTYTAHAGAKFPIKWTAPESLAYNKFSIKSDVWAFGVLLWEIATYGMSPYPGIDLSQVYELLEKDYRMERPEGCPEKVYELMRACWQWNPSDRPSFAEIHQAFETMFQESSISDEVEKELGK
From the text: as §1, §2, §3

[6] = target: T4, Src kinase domain (chicken c-Src residues 251-533) (Gallus gallus, UniProt P00523); assay: as above; assay type: biochemical; settings: for IC50: Src kinase domain
T4 construct: chicken c-Src (residues 251-533 and residues 83-533); made in house
From the text: as §1, §2, §3

[7] = system: Src Thr338Ile; assay: Inhibition of Src gatekeeper mutant; assay type: biochemical, chicken
From the text: as §1, §4

[8] = target: Pim1 (Homo sapiens, UniProt P11309); assay: Z'-LYTE kinase assay (Invitrogen SelectScreen); assay type: biochemical; settings: for IC50: Pim1
Chain of Pim1 (P11309 whole entry): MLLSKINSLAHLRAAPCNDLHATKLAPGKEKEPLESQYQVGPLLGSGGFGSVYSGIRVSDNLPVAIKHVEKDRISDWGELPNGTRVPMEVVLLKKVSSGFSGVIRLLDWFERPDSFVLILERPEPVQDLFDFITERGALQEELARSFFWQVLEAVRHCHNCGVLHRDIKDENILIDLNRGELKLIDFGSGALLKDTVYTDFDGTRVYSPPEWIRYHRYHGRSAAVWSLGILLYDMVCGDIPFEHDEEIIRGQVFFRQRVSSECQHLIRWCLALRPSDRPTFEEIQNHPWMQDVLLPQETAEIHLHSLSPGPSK
From the text: (§5) Macrocycles A10-B1-C11-D5 and A10-B8-C11-D5 were enriched 2- to 6-fold upon selection for binding Akt3, MAPKAPK2, Pim1, and VEGFR2 (FIG. 6). These two macrocycles are structurally similar, sharing nitrophenylalanine (A10) and cyclohexylstatine (C11) building blocks as well as the same lysine scaffold (D5), and differ only at the B building block with either furylalanine (B1) or cyclohexylalanine (B8) (FIG. 6). For assay purposes, the macrocycles were synthesized with C-terminal PEG-diamine linkers to aid solubility, and then tested for the ability to inhibit Akt3, MAPKAPK2, Pim1 and VEGFR2.
(§6) Src IC50 determinations and single-point inhibition measurements were performed using Invitrogen's Z′-LYTE Tyr 02 assay kit according to the manufacturer's protocols. All kinase assays were performed at ATP concentrations near KM,ATP values, except where noted otherwise. Active human Src kinase was obtained from Millipore. For kinome profiling and IC50 determinations against non-Src kinases, compounds were submitted to Invitrogen's SelectScreen Kinase Profiling Service.

[9] = target: Akt3 (Homo sapiens, UniProt Q9Y243); assay: Z'-LYTE kinase assay (Invitrogen SelectScreen); assay type: biochemical
Chain of Akt3 (Q9Y243 whole entry): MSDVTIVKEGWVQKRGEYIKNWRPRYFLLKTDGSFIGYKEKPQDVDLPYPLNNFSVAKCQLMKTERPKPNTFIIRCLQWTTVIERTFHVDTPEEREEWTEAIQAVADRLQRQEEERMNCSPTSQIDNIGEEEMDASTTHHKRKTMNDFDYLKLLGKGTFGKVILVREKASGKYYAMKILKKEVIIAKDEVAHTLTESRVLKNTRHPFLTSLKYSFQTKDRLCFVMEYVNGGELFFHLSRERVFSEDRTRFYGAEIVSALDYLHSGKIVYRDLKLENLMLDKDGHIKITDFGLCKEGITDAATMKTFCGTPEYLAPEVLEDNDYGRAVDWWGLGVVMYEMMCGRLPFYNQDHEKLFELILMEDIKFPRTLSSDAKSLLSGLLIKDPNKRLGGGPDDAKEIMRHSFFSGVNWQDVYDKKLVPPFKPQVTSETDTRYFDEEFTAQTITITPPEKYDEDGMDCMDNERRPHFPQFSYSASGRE
From the text: as §5, §6

[10] = target: MAPKAPK2 (MK2) (Homo sapiens, UniProt P49137); assay: Z'-LYTE kinase assay (Invitrogen SelectScreen); assay type: biochemical; settings: for IC50: MK2 (MAPKAPK2)
Chain of MAPKAPK2 (MK2) (P49137 whole entry): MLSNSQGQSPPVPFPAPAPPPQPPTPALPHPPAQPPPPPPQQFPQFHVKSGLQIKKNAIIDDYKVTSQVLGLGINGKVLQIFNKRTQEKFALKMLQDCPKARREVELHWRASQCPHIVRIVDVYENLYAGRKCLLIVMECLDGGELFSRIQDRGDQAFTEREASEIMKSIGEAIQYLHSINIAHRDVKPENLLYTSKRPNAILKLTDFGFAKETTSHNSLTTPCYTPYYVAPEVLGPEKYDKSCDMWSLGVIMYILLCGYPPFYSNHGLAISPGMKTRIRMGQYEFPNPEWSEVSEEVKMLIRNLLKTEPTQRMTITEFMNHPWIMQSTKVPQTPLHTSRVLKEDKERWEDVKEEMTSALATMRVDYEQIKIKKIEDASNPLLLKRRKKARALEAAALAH
From the text: as §5, §6

[11] = target: VEGFR2 (KDR) (Homo sapiens, UniProt P35968); assay: Z'-LYTE kinase assay (Invitrogen SelectScreen); assay type: biochemical
Chain of VEGFR2 (KDR) (P35968 20-1356): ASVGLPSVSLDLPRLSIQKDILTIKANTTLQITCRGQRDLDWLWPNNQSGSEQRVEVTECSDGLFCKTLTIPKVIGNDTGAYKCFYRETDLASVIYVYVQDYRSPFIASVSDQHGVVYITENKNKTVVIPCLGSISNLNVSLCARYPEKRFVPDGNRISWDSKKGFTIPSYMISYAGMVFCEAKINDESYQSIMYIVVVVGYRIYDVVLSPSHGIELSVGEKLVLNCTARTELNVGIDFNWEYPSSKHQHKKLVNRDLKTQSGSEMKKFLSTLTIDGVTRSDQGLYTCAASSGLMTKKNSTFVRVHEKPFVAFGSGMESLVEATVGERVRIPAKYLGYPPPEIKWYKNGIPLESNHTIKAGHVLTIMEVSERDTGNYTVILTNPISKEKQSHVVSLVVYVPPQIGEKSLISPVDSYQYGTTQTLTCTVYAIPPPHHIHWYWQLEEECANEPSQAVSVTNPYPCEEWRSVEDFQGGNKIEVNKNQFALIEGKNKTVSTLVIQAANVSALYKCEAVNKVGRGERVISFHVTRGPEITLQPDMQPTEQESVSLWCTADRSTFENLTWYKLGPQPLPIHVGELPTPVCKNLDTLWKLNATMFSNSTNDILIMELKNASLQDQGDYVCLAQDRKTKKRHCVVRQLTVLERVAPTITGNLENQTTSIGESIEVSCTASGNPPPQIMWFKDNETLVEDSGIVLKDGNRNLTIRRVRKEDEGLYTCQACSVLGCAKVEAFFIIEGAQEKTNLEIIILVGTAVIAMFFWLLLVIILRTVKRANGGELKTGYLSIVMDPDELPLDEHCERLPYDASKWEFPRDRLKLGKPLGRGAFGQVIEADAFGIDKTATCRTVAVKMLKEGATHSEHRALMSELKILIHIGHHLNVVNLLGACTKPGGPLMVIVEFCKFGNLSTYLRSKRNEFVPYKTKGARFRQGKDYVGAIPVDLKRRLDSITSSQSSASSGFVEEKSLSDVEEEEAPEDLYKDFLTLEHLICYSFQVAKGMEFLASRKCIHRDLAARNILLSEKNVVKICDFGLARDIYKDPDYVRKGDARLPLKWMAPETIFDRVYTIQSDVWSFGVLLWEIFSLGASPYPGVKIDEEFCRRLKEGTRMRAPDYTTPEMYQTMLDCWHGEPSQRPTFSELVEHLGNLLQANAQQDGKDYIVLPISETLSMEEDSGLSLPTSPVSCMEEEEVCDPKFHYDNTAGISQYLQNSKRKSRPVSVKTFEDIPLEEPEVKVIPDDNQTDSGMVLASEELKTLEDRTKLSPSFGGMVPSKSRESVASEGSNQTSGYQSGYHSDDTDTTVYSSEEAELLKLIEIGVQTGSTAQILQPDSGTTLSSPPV
From the text: as §5, §6

[12] = target: p38α-MAPKAPK2 kinase cascade (P38α-MK2) (Homo sapiens, UniProt P49137+Q16539); assay: Z'-LYTE kinase cascade assay (Invitrogen SelectScreen); assay type: biochemical
Chain of p38α-MAPKAPK2 kinase cascade (P38α-MK2) (Q16539 whole entry): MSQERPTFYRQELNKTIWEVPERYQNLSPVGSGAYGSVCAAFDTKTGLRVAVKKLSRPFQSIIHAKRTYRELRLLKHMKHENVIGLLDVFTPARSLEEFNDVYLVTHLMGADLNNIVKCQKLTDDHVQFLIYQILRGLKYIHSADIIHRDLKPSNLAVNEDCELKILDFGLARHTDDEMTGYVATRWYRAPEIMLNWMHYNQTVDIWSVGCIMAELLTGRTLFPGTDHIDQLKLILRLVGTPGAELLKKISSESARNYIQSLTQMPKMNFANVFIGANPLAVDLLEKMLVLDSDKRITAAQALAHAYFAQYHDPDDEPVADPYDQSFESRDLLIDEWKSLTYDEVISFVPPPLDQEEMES
Chain of p38α-MAPKAPK2 kinase cascade (P38α-MK2) (P49137 whole entry): as the sequence (P49137 whole entry) above
From the text: as §5, §6

[13] = 5 μM ATP, 100 μM Src optimal peptide
[14] = 5 μM ATP, 100 μM Src optimal peptide, listed as Macrocycle 1.2
[15] = 5 μM ATP, 300 μM Src optimal peptide
[16] = 250 μM ATP, 300 μM Src optimal peptide
[17] = 10 or 100 μM macrocycle overnight

SMILES: O=C1/C=C\C(=O)N[C@@H](CC2CCCCC2)C(=O)N[C@@H](Cc2ccccc2)C(=O)N[C@@H](CCCNC(=O)c2cnccn2)C(=O)NCC[C@@H](C(=O)O)N1 [MC1.2]
- reduction of global tyrosine phosphorylation (in words) ([1]; 100 μM): did not reduce global tyrosine phosphorylation
- IC50 [2, 13]: 4 µM
- IC50 [2, 14]: ≤ 0.87 µM
- IC50 [2, 15]: 1.9 µM
- IC50 [2, 16]: 2.4 µM
- IC50 [3, 13]: 0.36 µM
- IC50 [3, 14]: ≤ 0.36 µM
- IC50 [3, 15]: 0.46 µM
- IC50 [3, 16]: 1 µM
- increase in Src inhibition potency relative to parent macrocycle [4]: > 150 fold
- IC50 [4]: ≤ 0.004 µM
- IC50 [5, 13]: > 100 µM
- IC50 [5, 15]: > 100 µM
- IC50 [5, 16]: > 100 µM
- IC50 [6, 13]: 0.07 µM
- IC50 [6, 14]: ≤ 0.07 µM
- IC50 [6, 15]: 0.12 µM
- IC50 [6, 16]: 0.14 µM
- increase in IC50 upon increasing substrate peptide 3-fold to 300 μM ([6]; Src optimal substrate peptide 100 to 300 μM): 50%

SMILES: NC(=O)[C@@H]1CCCNC(=O)[C@H](Cc2ccc([N+](=O)[O-])cc2)NC(=O)[C@H](Cc2ccccc2)NC(=O)[C@H](CC2CCCCC2)NC(=O)/C=C/C(=O)N1 [MC4.2]
- reduction of global phosphotyrosine levels (in words) [1, 17]: modest reduction
- EC50 ([1]; overnight treatment, serum-free DMEM, read-out: EC50 of reduction of global phosphotyrosine levels): > 100 µM
- inhibition of Src Thr338Ile gatekeeper mutant (in words) [7]: retained their inhibition potency
- increase in Src inhibition potency relative to parent macrocycle [4]: > 10 fold
- IC50 [4]: 0.006 µM
- IC50 [6, 13]: 0.6 µM

SMILES: NC(=O)[C@@H]1CCCNC(=O)[C@H](Cc2ccc([N+](=O)[O-])cc2)NC(=O)[C@H](Cc2ccc(F)cc2)NC(=O)[C@H](CC2CCCCC2)NC(=O)/C=C/C(=O)N1 [MC4.3]
- reduction of global phosphotyrosine levels (in words) [1, 17]: higher levels of tyrosine phosphorylation inhibition
- inhibition of Src Thr338Ile gatekeeper mutant (in words) [7]: retained their inhibition potency
- Src inhibition relative to parent compound (in words) [4]: retained all of the parent compound activity

SMILES: CC(C)(C)n1nc(-c2ccc(Cl)cc2)c2c(N)ncnc21 [PP2, reference compound]
- reduction of global phosphotyrosine levels (in words) ([1]; 10 μM): reduction of global phosphotyrosine to levels comparable with those observed in the cells transfected with empty vector

SMILES: NCCOCCOCCNC(=O)[C@@H]1CCCCNC(=O)[C@H](Cc2ccc([N+](=O)[O-])cc2)NC(=O)[C@H](Cc2ccco2)NC(=O)C[C@H](O)[C@H](CC2CCCCC2)NC(=O)/C=C\C(=O)N1 [cis-A10-B1-C11-D5]
- inhibition of Pim1 (in words) ([8]; isolated kinase enzyme, non-DNA-linked form): did not inhibit
- inhibition of Akt3 (in words) ([9]; isolated kinase enzyme): did not inhibit
- inhibition of MAPKAPK2 (in words) ([10]; isolated kinase enzyme): did not inhibit
- increase of VEGFR2 enzyme activity ([11]; 10 μM macrocycle): 70%
- increase of VEGFR2 enzyme activity ([11]; 100 μM compound): 300%
- IC50 [12]: 6.4 µM and 6.5 µM

SMILES: NCCOCCOCCNC(=O)[C@@H]1CCCCNC(=O)[C@H](Cc2ccc([N+](=O)[O-])cc2)NC(=O)[C@H](CC2CCCCC2)NC(=O)C[C@H](O)[C@H](CC2CCCCC2)NC(=O)/C=C\C(=O)N1 [cis-A10-B8-C11-D5]
- IC50 [8]: 7.5 µM and 7.3 µM
- IC50 ([9]; Akt3): 8.7 µM and 8.4 µM
- IC50 [10]: 6.1 µM
- IC50 [12]: 3.4 µM

SMILES: NCCOCCOCCNC(=O)[C@@H]1CNC(=O)[C@@H](Cc2ccc(C(=O)c3ccccc3)cc2)NC(=O)[C@H](CC2CCCCC2)NC(=O)[C@H](C/C=C/c2ccccc2)NC(=O)/C=C\C(=O)N1 [cis-A12-B8-C10-D8]
- IC50 [8]: 17 µM
- IC50 [10]: 47 µM
- IC50 [12]: 14 µM
